Assays:
Bead-activated PBMCs = test: Payload gene order: 2A detection, rapamycin enrichment and expansion of CAR-T cells; format: cell-based; conditions: by day 22; 10 nM rapamycin
Procedure: The aim of this study was to determine the effect of order on the detectability and function of a lentiviral payload comprised of the following functional elements: Frb-RACR, and αCD19-CAR. The Frb-RACR element provides a selective advantage to cells when rapamycin is added to the culture. The αCD19-CAR element provides targeting of T cells to CD19+ target cells. The two elements together create CAR-T cells that enrich with rapamycin and are cytotoxic to CD19+ target cells. Two payload designs evaluated differ only in the order in which elements are expressed in the polycistronic transcript. This study tested functional aspects of the payloads in both orientations to see if differences in expression were affecting 1) payload detection by flow cytometry (2A antibody), 2) CAR-T cell rapamycin response, and 3) CAR-T cell CD19+ cell cytotoxicity.
Two payload designs evaluated: • 1. MND promoter—FRB-P2A-RACRβ-P2A-RACRγ-P2A-CAR (SEQ ID NO: 81) • 2. MND promoter—CAR-P2A-FRB-P2A-RACRβ-P2A-RACRγ (SEQ ID NO: 61)
Expansion of CAR-T cells was measured using cell counts, culture volume, and flow cytometry population frequencies to estimate total CAR-T cells. Gating requirements were different for d15 and 22; however, in each case, un-transduced cells were used as a biological negative control. […]

Nalm-6 GFP FFLUC cells = test: Nalm-6 systemic tumor model in PBMC-humanized mice; design: species or system MHC I/II KO NSG female mice; conditions: mouse, in vivo
Procedure: The aim of this study is to evaluate the efficacy of UB-VV100 and the effects of rapamycin dosing after UB-VV100 administration in a Nalm-6 systemic tumor model in PBMC-humanized mice. The UB-VV100 Viral particles comprised SEQ ID NOs: 121, 128, 131, and 132.
Lentivirus was prepared using adherent production and tiered on 293T cells by flow cytometry. Nalm-6 GFP FFLUC cells expressing luciferase and GFP were obtained from the Jensen lab, SCRI, cultured by Umoja Biopharma, and delivered in PBS for injection.
24 MHC I/II KO NSG female mice were used in the study. On study day −5 (D-5) mice were implanted with 0.5 million Nalm-6 cells via retroorbital injection.
At study day −1 mice where humanized with 10 million PBMC via IP injection. The same day all mice were imaged with an IVIS imager 15 minutes after d-Luciferin injection (15 mg/kg) to detect Nalm-6 disease burden. All mice from each tumor group were randomized according to their tumor bioluminescence (Total Flux) levels into 4 cohorts according to the Table 8 below.
At study day 0 mice from groups 3 and 4 were treated IP with 20 million viral particles of UB-VV100 in 500 ul of PBS. […]
Percentage of body weight loss was monitored during the study (FIG. 34B). […] Bone marrow, spleen, peripheral blood and tumor were collected, processed into a single cell suspension, and analyzed by flow cytometry.

unstimulated human PBMCs = test: T cell activation (CD25) in PBMCs after vector addition, flow cytometry; format: cell-based; conditions: 4 days after transduction; VT103 mCherry vectors 5 ul or 25 ul; Blinatumomab 1 ng/ml
Procedure: PBMCs were thawed, resuspended into 10 ml RPMI complete media, and the PBMCs were diluted to 1e6 cells/ml in complete RPMI media. IL-2 was added to a final concentration of 50U/ml. PBMCs were separated into 3× groups of 15 ml each for various stimulations: • Group #1—Blinatumomab added to a final concentration of 1 ng/ml • Group #2-15e6 αCD3/αCD28 Dynabeads added • Group #3—IL-2 only
For each group, 5 ml of stimulation solution was added to 3× wells of Non-TC treated 6 well plate and incubated at 37° C. for 48 hours. Beads were removed from applicable wells, cells were counted and pelleted. Cells were then resuspended in fresh complete RPMI media at 1e6 cells/ml with IL-2 at a final concentration of 50U/ml. 1 ml (1e6 cells) was added to the wells of a Non TC-treated 12 well plate. […]
After 4 days, cells were resuspended with 200 ul into wells in a 96 well V-bottom plate. […] Cells were resuspended in 50 ul of surface antibody cocktail (Anti-CD3-PerCP, Anti-CD19-FITC, Anti-CD56-APC, and Anti-CD25-BV421), incubated for 20 min at 4° C., washed in 200 ul FACS buffer, and resuspended in 100 ul FACS buffer and analyzed by flow cytometry. […]
(§1) Each group was incubated at 37° C. overnight. Beads were removed from applicable wells, cells were counted and pelleted. […]
as §1

CO[C@H]1C[C@@H]2CC[C@@H](C)[C@@](O)(O2)C(=O)C(=O)N2CCCC[C@H]2C(=O)O[C@H]([C@H](C)C[C@@H]2CC[C@@H](O)[C@H](OC)C2)CC(=O)[C@H](C)/C=C(\C)[C@@H](O)[C@@H](OC)C(=O)[C@H](C)C[C@H](C)/C=C/C=C/C=C/1C [rapamycin]
expansion of αCD19-CAR-T cells over non-rapamycin treated cells (Bead-activated PBMCs): 4.3 fold | survival (Nalm-6 GFP FFLUC cells): ≤ 20 study day

Blinatumomab: Bispecific T-cell engager with anti-CD3 moiety, used as PBMC stimulus
CD25 expression on T cells (activation) (unstimulated human PBMCs): potently activated the T cells
